Assay results as given in patent US5847047A, “Antimicrobial composition of a polymer and a peptide forming amphiphilic helices of the magainin-type” (priority 1995, dated 1998).
Where a SMILES comes first, the peptide text is derived from it. Where no end group is shown, it is not given here.

What was measured:
E. coli [1] = assay: Shake flask method for peptides covalently bound to polyamide resin (CFU count); type: cell-based; conditions: for MIC E. coli: concentration of oligopeptide immobilized on PepsynK resin via EDA linker, shake flask, phosphate buffer pH 7.2, 37° C.; for % Reduction E. coli: immobilized peptide on EDA-PepsynK, determined as described in Example 9
Description: (§1) Occasionally, a shake flask method was employed for insoluble articles. In the shake flask method, 75 mL of 0.6 mM phosphate buffer, pH 7.2 and 0.100 mL of the stock cell culture and the oligopeptide sample were added to a 250 mL polystyrene tissue culture flask. The flasks were incubated in a shaking water bath at 37° C. At specified times (1 hour and 24 hours), an aliquot (0.100 mL) was removed from the shake flask and serial dilutions ranging from 10 to 1000-fold were made to allow the enumeration of cells on agar plates. Each agar plate was inoculated with 0.200 mL of the diluted cell suspension, and the suspension was uniformly spread on the plate. Colony-forming units CFU on the agar plates were counted after 24 hours in an incubator (37° C.). Cells were identified by visual observation and use of a colony counter. Total CFU/mL was determined by correcting the cell count for the dilution factor.
Samples of peptides corresponding to the amino acid sequences SEQ ID NO:8, SEQ ID NO:13, SEQ ID NO:14, SEQ ID NO:15 and SEQ ID NO:1, were covalently linked to the polyamide resin PepSyn K as described in Example 10 and were tested for antimicrobial activity. Five compositions (PEPSYNK-LKP, PEPSYNK-LKPGK, PEPSYNK-LKPG2 K, PEPSYNK-LKPG3 K, and PEPSYNK-KGLKP) were tested over a range of 0 to 5 mg/ml of oligopeptide. Since the covalently linked oligopeptide/polymer compositions were insoluble, the protocol for testing antimicrobial activity was modified from that for the soluble peptide compositions of Example 2. Here, a shake flask method was employed.
as §1, with “In” for “Occasionally, a shake flask method was employed for insoluble articles. In”, “oligopeptide samples, ranging from 0 to 5 mg/ml of oligopeptide” for “oligopeptide sample”, “dilutions were made” for “dilutions”, “1000-fold” for “1000-fold were made”, “enumeration or” for “enumeration of”, “factor. In this manner the minimal inhibitory concentration (MIC) of oligopeptide for covalently linked compositions corresponding to PEPSYNK-LKP, PEPSYNK-LKPGK, PEPSYNK-LKPG2 K, PEPSYNK-LKPG3 K, and PEPSYNK-KGLKP were determined.” for “factor.”
The bactericidal activity for each immobilized peptide was determined as described in Example 9. The structures and the bactericidal activities of the immobilized peptides are shown in Table V. The relative activities against E. coli are consistent with what is known about the soluble peptides. […] The reverse magainin is a much poorer bactericide than its normal sequence.

E. coli [2] = assay: Antimicrobial activity of soluble oligopeptides, microtiter growth inhibition (MIC); type: cell-based; conditions: soluble peptide, LB broth, 37° C.
Description: (§2) The term "MIC" refers to minimal inhibitory concentration and will be defined as the lowest concentration of either soluble peptide or peptide immobilized on a polymer that results in total kill of bacteria.
(§3) Typically, assays for antimicrobial activity of soluble oligopeptide compositions were carried out in microtiter wells. Each well was charged with 150 μl of LB broth containing cells at a final concentration of between 1×10^6 to 1×10^7 cells/ml and oligopeptide at final concentrations of 1×10^-3 to 1×10^-6 M. It is preferred that the oligopeptides be dissolved in water prior to addition to the assay medium and that cells be inoculated from mid-log phase cultures. […] Cultures showing cell growth inhibition were incubated for an additional 15 hr. at which time a final absorbance reading was taken. FIGS. 4a-d illustrate the cell growth inhibition of E. coli cultures incubated in the presence of various oligopeptides.
(§4) All manipulations with microorganisms involved the application of standard sterile techniques employed in microbiology. All cells were grown at 37° C. Cell concentration was measured by optical density measurements at 600 nm in a Perkin Elmer Model 552 UV/VIS spectrophotometer. The microorganisms used were strains of E. coli. and S. aureus. On the day prior to the assay, an overnight culture was prepared. On the following morning, the stationary phase cells were subcultured and allowed to grow to mid-log phase.
(§5) Each well was charged with LB Broth (150 mcL). The oligopeptide samples were dissolved in water and were added to achieve the appropriate final oligopeptide concentrations (ranging from 1×10^-3 to 1×10^-6 M) Finally, cells suspended in LB medium were added to a final concentration of between 1×10^6 to 1×10^7 cells/mL. The microtiter plate was covered and allowed to gently rotate in an orbital shaker. […] Control samples used for all experiments were: (a) LB broth only=uninoculated control; (b) LB broth only+cells=inoculated control.
In FIGS. 4a-d cell growth inhibition is plotted as molar concentration of antimicrobial peptide as a function of the number of cells killed/ml. FIG. 4a-d illustrates the activity of the core oligopeptide, the N-addition analogue of formula II, the N-addition analogue of formula III, and the N-addition analogue of formula IV, respectively. All cultures were actively growing in log-phase and at a cell concentration of 2.0×10^7 cells/ml.

S. aureus = assay: as above; type: cell-based; conditions: soluble peptide, LB broth, 37° C.
Description: as §2, §3, §4, §5

Description for human erythrocytes: A 5.0% stock cell solution of human erythrocytes in phosphate buffered saline (PBS) was prepared by suspending 2.0 mL packed human erythrocytes in 38 mL of phosphate buffered saline (10 mM sodium phosphate, 120 mM sodium chloride, 2.7 mM potassium chloride, pH 7.5). Samples of the four compositions recited above were added to microfuge tubes containing 0.5 mL of cell solution and 0.5 mL of PBS. Upon addition of sample, the vials were capped, gently homogenized, then allowed to gently shake in an incubator at 37° C. for 30 minutes. The samples were centrifuged to sediment the cells. The supernatants were transferred to cuvettes and the absorbances at 414 nm were read in a Perkin Elmer 552 spectrophotometer. The 0 and 100% hemolysis controls were PBS and PBS +1.0% Triton X-100, respectively.

Molecule | MIC E. coli (E. coli [1]) | % Hemolysis at >6 mg/mL (human erythrocytes) | Minimal Inhibitory Concentration E. coli (E. coli [2]) | Minimal Inhibitory Concentration S. aureus (S. aureus) | % Reduction E. coli (E. coli [1])
PepsynK-LKPGK: peptide SEQ ID NO:13 covalently linked to polyamide resin PepSyn K via non-cleavable EDA linker (LKLLKKLLKLLKKLGK; also: covalently linked to PepSyn K resin via EDA linker) | 2213 µg/mL | 0.7% | – | – | –
Pepsynk-LKP: peptide SEQ ID NO:8 covalently linked to polyamide resin PepSyn K via non-cleavable EDA linker (LKKLLKLLKKLLKL; also: covalently linked to PepSyn K resin via EDA linker) | 807 µg/mL | 0.9% | – | – | –
CC(C)C[C@H](NC(=O)[C@H](CCCCN)NC(=O)[C@H](CC(C)C)NC(=O)[C@H](CC(C)C)NC(=O)[C@H](CCCCN)NC(=O)[C@H](CCCCN)NC(=O)[C@H](CC(C)C)NC(=O)[C@H](CC(C)C)NC(=O)[C@H](CCCCN)NC(=O)[C@H](CC(C)C)NC(=O)[C@H](CC(C)C)NC(=O)[C@H](CCCCN)NC(=O)[C@H](CCCCN)NC(=O)[C@H](CC(C)C)NC(=O)CNC(=O)[C@@H](N)CCCCN)C(=O)O [Formula II, KGLKKLLKLLKKLLKL] (H-KGLKKLLKLLKKLLKL-OH) | – | – | 7.8 µg/mL | 15.6 µg/mL | –
PepsynK-KGLKP: peptide SEQ ID NO:1 covalently linked to polyamide resin PepSyn K via non-cleavable EDA linker (KGLKKLLKLLKKLLKL; also: covalently linked to PepSyn K resin via EDA linker) | 888 µg/mL | > 0.7% | – | – | –
SNMIEGVFAKGFKKASHLFKGIG (SNMIEGVFAKGFKKASHLFKGIG; immobilized on EDA-PepsynK resin) [EDA-PepsynK magainin2, magainin 2 immobilized on EDA-modified PepsynK resin] | – | – | – | – | 100%
PepsynK-LKPG2K: peptide SEQ ID NO:14 covalently linked to polyamide resin PepSyn K via non-cleavable EDA linker (LKLLKKLLKLLKKLGGK; also: covalently linked to PepSyn K resin via EDA linker) | 1208 µg/mL | 1.2% | – | – | –
CC(C)C[C@H](NC(=O)[C@H](CCCCN)NC(=O)[C@H](CC(C)C)NC(=O)[C@H](CC(C)C)NC(=O)[C@H](CCCCN)NC(=O)[C@H](CCCCN)NC(=O)[C@H](CC(C)C)NC(=O)[C@H](CC(C)C)NC(=O)[C@H](CCCCN)NC(=O)[C@H](CC(C)C)NC(=O)[C@H](CC(C)C)NC(=O)[C@H](CCCCN)NC(=O)[C@H](CCCCN)NC(=O)[C@H](CC(C)C)NC(=O)CNC(=O)CNC(=O)CNC(=O)[C@@H](N)CCCCN)C(=O)O [Formula IV, KGGGLKKLLKLLKKLLKL] (H-KGGGLKKLLKLLKKLLKL-OH) | – | – | 7.8 µg/mL | 15.6 µg/mL | –
GIGKFLHSAKKFGKAFVGEIMNS (GIGKFLHSAKKFGKAFVGEIMNS; immobilized on EDA-PepsynK resin) [EDA-PepsynK reverse magainin2, reverse magainin 2 peptide immobilized on EDA-modified PepsynK resin] | – | – | – | – | 95.14%
V-F-A-K-G-F-K-K-A-S-H-L-F-K-G-I-G (VFAKGFKKASHLFKGIG; immobilized on EDA-PepsynK resin) [EDA-PepsynK magainin 17-mer deletion, 17-mer deletion peptide of magainin 2 immobilized on EDA-modified PepsynK resin] | – | – | – | – | 99.3%
CC(C)C[C@H](NC(=O)[C@H](CCCCN)NC(=O)[C@H](CC(C)C)NC(=O)[C@H](CC(C)C)NC(=O)[C@H](CCCCN)NC(=O)[C@H](CCCCN)NC(=O)[C@H](CC(C)C)NC(=O)[C@H](CC(C)C)NC(=O)[C@H](CCCCN)NC(=O)[C@H](CC(C)C)NC(=O)[C@H](CC(C)C)NC(=O)[C@H](CCCCN)NC(=O)[C@H](CCCCN)NC(=O)[C@H](CC(C)C)NC(=O)CNC(=O)CNC(=O)[C@@H](N)CCCCN)C(=O)O [Formula III, KGGLKKLLKLLKKLLKL] (H-KGGLKKLLKLLKKLLKL-OH) | – | – | 7.8 µg/mL | 62.5 µg/mL | –
CC(C)C[C@H](NC(=O)[C@H](CCCCN)NC(=O)[C@H](CC(C)C)NC(=O)[C@H](CC(C)C)NC(=O)[C@H](CCCCN)NC(=O)[C@H](CCCCN)NC(=O)[C@H](CC(C)C)NC(=O)[C@H](CC(C)C)NC(=O)[C@H](CCCCN)NC(=O)[C@H](CC(C)C)NC(=O)[C@H](CC(C)C)NC(=O)[C@H](CCCCN)NC(=O)[C@H](CCCCN)NC(=O)[C@@H](N)CC(C)C)C(=O)O [Formula I] (H-LKKLLKLLKKLLKL-OH) | – | – | 15.6 µg/mL | 31.2 µg/mL | –
PepsynK-LKPG3K: peptide SEQ ID NO:15 covalently linked to polyamide resin PepSyn K via non-cleavable EDA linker (LKLLKKLLKLLKKLGGGK; also: covalently linked to PepSyn K resin via EDA linker) | 938 µg/mL | 12.7% | – | – | –
